Measured values: patent US20250051263A1, “NOVEL IONIZABLE LIPIDS AND LIPID NANOPARTICLES AND METHODS OF USING THE SAME” (Sail Biomedicines, Inc., priority 2021, published 2025)

Key:
Type in all cases: physicochemical
[1] = TNS (pKa) assay, apparent LNP pKa; conditions: for pKa (TNS): Example 5 LNP lipid:DOPE:Plant Cholesterol:DMPE-PEG2k 35:16:46.5:2.5, FLUC/EPO 1:1 mRNA, N:P 6:1
Procedure: (protocol adapted from: A Novel Amino Lipid Series for mRNA Delivery: Improved Endosomal Escape and Sustained Pharmacology and Safety in Non-human Primates, Sabnis, Staci et al., Molecular Therapy, Volume 26, Issue 6, 1509-1519) 20 buffers (10 mM sodium phosphate, 10 mM sodium borate, 10 mM sodium citrate, and 150 mM sodium chloride, in Distilled Water) of unique pH values ranging from 3.0-12.0 were prepared using 1M sodium hydroxide and 1M hydrochloric acid. 3.25 uL of LNPs (0.04 mg/mL mRNA, in PBS) were incubated with 2 μL of TNS reagent (0.3 mM, in DMSO) and 90 μL of buffer for each pH value (described above) in a 96-well black-walled plate. Each pH condition was performed in triplicate wells. The TNS fluorescence was measured using a Biotek Cytation Plate reader at excitation/emission wavelengths of 321/445 nm. The fluorescence values were then plotted and fit using a 4-parameter sigmoid curve. From the fit, the pH value yielding the half-maximal fluorescence was calculated and reported as the apparent LNP pKa value.
For pKa measurement, a […] assay was conducted according to those described in Sabnis et al., Molecular Therapy, 26(6):1509-19), which is incorporated herein by reference in its entirety. Briefly, 20 buffers (10 mM sodium phosphate, 10 mM sodium borate, 10 mM sodium citrate, and 150 mM sodium chloride, in distilled Water) of unique pH values ranging from 3.0-12.0 were prepared using 1M sodium hydroxide and 1M hydrochloric acid. 3.25 μL of a LNP composition (0.04 mg/mL mRNA, in PBS) was incubated with 2 μL of TNS reagent (0.3 mM, in DMSO) and 90 μL of buffer for each pH value (described above) in a 96-well black-walled plate. Each pH condition was performed in triplicate wells. The TNS fluorescence was measured using a Biotek Cytation Plate reader at excitation/emission wavelengths of 321/445 nm. The fluorescence values were then plotted and fit using a 4-parameter sigmoid curve. From the fit, the pH value yielding the half-maximal fluorescence was calculated and reported as the apparent LNP pKa value.

[2] = LNP size and polydispersity, Zetasizer Ultra
Source text: (§1) All other compositions (i.e., compositions of MC3 (a commercially available ionizable lipid having a chemical name of (6Z,9Z,28Z,31Z)-heptatriacont-6,9,28,31-tetraene-19-yl 4-(dimethylamino)butanoate, and compositions of novel ionizable lipids 7669, 7671, 7668, 767, 7650) are composed of ionizable lipid:structural lipid:sterol:PEG-lipid (SDA lipid #:DSPC:cholesterol:14:0 PEG2000 PE) at a molar ratio of […], respectively. Lipids are solubilized in ethanol. Compositions are then handled as above, except the formulations are maintained at ionizable lipid to mRNA N:P ratio of 6:1. The lipid mix and mRNA solution are mixed at a 1:3 ratio by volume, respectively, on a NanoAssemblr Ignite (Precision Nanosystems) at a total flow rate of 9 mL/min. Resulting compositions are then loaded into Slide-A-Lyzer G2 dialysis cassettes (10 k MWCO) and dialyzed in 200 times sample volume of 1×PBS for 4 hrs at room temp with gentle stirring. The PBS is refreshed, and the compositions are further dialyzed for at least 14 hrs at 4° C. with gentle stirring. The dialyzed compositions are then collected and concentrated by centrifugation at 2000×g using Amicon Ultra centrifugation filters (100 k MWCO). Concentrated particles are characterized for size, polydispersity, and particle concentration using Zetasizer Ultra (Malvern Panalytical) and for mRNA encapsulation efficiency using Quant-iT RiboGreen RNA Assay Kit (ThermoFisher Scientific).
(§2) The lipid mix and mRNA solution were mixed at a 1:3 ratio by volume, respectively, on the NanoAssemblr Ignite (Precision Nanosystems) at a total flow rate of 9 mL/min. Resulting formulations were then loaded into Slide-A-Lyzer G2 dialysis cassettes (10 k MWCO) and dialyzed in 200 times sample volume of 1×PBS for 2 hrs at room temperature. The PBS was refreshed, and the formulations were further dialyzed for at least 14 hrs at 4° C. with gentle stirring. The dialyzed formulations were then collected and concentrated by centrifugation at 3000×g using Amicon Ultra centrifugation filters (100 k MWCO). The concentrated formulations were characterized for size, polydispersity, and particle concentration using Zetasizer Ultra (Malvern Panalytical) and for mRNA encapsulation efficiency using Quant-iT RiboGreen RNA Assay Kit (ThermoFisher Scientific).
(§3) For each LNP composition, the lipid mix and mRNA solution were mixed at a 1:3 ratio by volume, respectively, on a NanoAssemblr Ignite (Precision Nanosystems) at a total flow rate of 9 mL/min. The resulting compositions were then loaded into Slide-A-Lyzer G2 dialysis cassettes (10 k MWCO) and dialyzed in 200 times sample volume of 1×PBS for 2 hours at room temperature with gentle stirring. The PBS was refreshed, and the compositions were further dialyzed for at least 14 hours at 4° C. with gentle stirring. The dialyzed compositions were then collected and concentrated by centrifugation at 3000×g using Amicon Ultra centrifugation filters (100 k MWCO). The concentrated particles were characterized for size, polydispersity, and particle concentration using Zetasizer Ultra (Malvern Panalytical) and for mRNA encapsulation efficiency using Quant-iT RiboGreen RNA Assay Kit (ThermoFisher Scientific).

[3] = mRNA encapsulation efficiency, Quant-iT RiboGreen RNA Assay
Source text: as §1, §2, §3

[4] = LNP ionizable lipid:DOPE:Plant Chol.:DMPE-PEG2k 35:16:46.5:2.5 (Table 1)
[5] = LNP ionizable lipid:DSPC:Plant Chol.:DMPE-PEG2k 50:10:38.5:1.5
[6] = Example 5 LNP lipid:DOPE:Plant Cholesterol:DMPE-PEG2k 35:16:46.5:2.5, FLUC/EPO 1:1 mRNA, N:P 6:1

With `C=C(CN(CCCCCCCC(=O)OC(CCCCCCCC)CCCCCCCC)CCCCCC(=O)OCCCCCCCCCCC)CN(CCCCCCCC(=O)OC(CCCCCCCC)CCCCCCCC)CCCCCC(=O)OCCCCCCCCCCC` [Compound 2253, 1-octylnonyl 8-[2-[[[8-(1-octylnonoxy)-8-oxo-octyl]-(6-oxo-6-undecoxy-hexyl)amino]methyl]allyl-(6-oxo-6-undecoxy-hexyl)amino]octanoate] the “pKa (TNS)” value [1] was 3.66, the pKa [1, 4] was 3.66 and the pKa [1, 5] was 3.48. For the same compound, the PDI [2, 6] was 0.23, the “Size (nm)” value [2, 6] was 107.9 nm and the PDI [2, 4] was 0.23. For the same compound, the “Size (nm)” value [2, 4] was 107.87 nm, the PDI [2, 5] was 0.18 and the “Size (nm)” value [2, 5] was 120.70 nm. The “% EE” value [3, 6] was 82.7% and the “% EE” value [3, 4] was 82.7%.
In the case of `CCCCCCCCCCCC(=O)OCCCCCN(CCCCCCCC(=O)OC(CCCCCCCC)CCCCCCCC)CCNC(=O)CCC(=O)NCCN(CCCCCCCC(=O)OC(CCCCCCCC)CCCCCCCC)CCCCCOC(=O)CCCCCCCCCCC` [Compound 2354, 5-[2-[[4-[2-[5-dodecanoyloxypentyl-[8-(1-octylnonoxy)-8-oxo-octyl]amino]ethylamino]-4-oxo-butanoyl]amino]ethyl-[8-(1-octylnonoxy)-8-oxo-octyl]amino] pentyl dodecanoate], the “pKa (TNS)” value [1] is reported as 6.47, the PDI [2, 6] is reported as 0.10 and the “Size (nm)” value [2, 6] is reported as 69.2 nm. For the same compound, the “% EE” value [3, 6] was 94.6%.
In the case of `CCCCCCCCCCC(CC)OC(=O)CCCCCN(CCCCCCCC(=O)OC(CCCCCCCC)CCCCCCCC)CCNC(=O)/C=C/C(=O)NCCN(CCCCCCCC(=O)OC(CCCCCCCC)CCCCCCCC)CCCCCC(=O)OC(CC)CCCCCCCCCC` (stereo not shown) [Compound 2378, 1-octylnonyl 8-[[6-(1-ethylundecoxy)-6-oxo-hexyl]-[2-[[(E)-4-[2-[[6-(1-ethylundecoxy)-6-oxo-hexyl]-[8-(1-octylnonoxy)-8-oxo-octyl]amino]ethylamino]-4-oxo-but-2-enoyl]amino]ethyl]amino]octanoate], the “pKa (TNS)” value [1] is reported as 6.33, the PDI [2, 6] is reported as 0.08 and the “Size (nm)” value [2, 6] is reported as 107.8 nm. The “% EE” value [3, 6] was 93.0%.
In the case of `CCCCCCCCCCCOC(=O)CCCCCN(CCCCCCCC(=O)OC(CCCCCC)CCCCCCCC)CCNC(=O)CCC(=O)NCCN(CCCCCCCC(=O)OC(CCCCCC)CCCCCCCC)CCCCCC(=O)OCCCCCCCCCCC` (stereo not shown) [Compound 2390, 1-hexylnonyl 8-[2-[[4-[2-[[8-(1-hexylnonoxy)-8-oxo-octyl]-(6-oxo-6-undecoxy-hexyl)amino]ethylamino]-4-oxo-butanoyl]amino]ethyl-(6-oxo-6-undecoxy-hexyl)amino]octanoate], the “pKa (TNS)” value [1] is reported as 6.82, the PDI [2, 6] is reported as 0.09 and the “Size (nm)” value [2, 6] is reported as 71.6 nm. For the same compound, the “% EE” value [3, 6] was 90.6%.
For `CCCCCCCCCCCNC(=O)CCCCCN(CCCCCCCC(=O)NC(CCCCCCCC)CCCCCCCC)CCNC(=O)CCC(=O)NCCN(CCCCCCCC(=O)NC(CCCCCCCC)CCCCCCCC)CCCCCC(=O)NCCCCCCCCCCC` [Compound 2282, N,N′-bis[2-[[8-(1-octylnonylamino)-8-oxo-octyl]-[6-oxo-6-(undecylamino)hexyl]amino]ethyl]butanediamide], the “pKa (TNS)” value [1] was 6.92, the PDI [2, 6] was 0.16 and the “Size (nm)” value [2, 6] was 73.1 nm. For the same compound, the “% EE” value [3, 6] was 94.7%.
For `CCCCCCCCCOC(=O)CCCCCCCN(CCCCCCCC(=O)OC(CCCCCCCC)CCCCCCCC)CCNC(=O)CCC(=O)NCCN(CCCCCCCC(=O)OCCCCCCCCC)CCCCCCCC(=O)OC(CCCCCCCC)CCCCCCCC` [Compound 2213, nonyl 8-[2-[[4-[2-[(8-nonoxy-8-oxo-octyl)-[8-(1-octylnonoxy)-8-oxo-octyl]amino]ethylamino]-4-oxo-butanoyl]amino]ethyl-[8-(1-octylnonoxy)-8-oxo-octyl]amino]octanoate], the “pKa (TNS)” value [1] was 6.54, the PDI [2, 6] was 0.10 and the “Size (nm)” value [2, 6] was 63.9 nm. The “% EE” value [3, 6] was 92.5%.
For `CCCCCCCCCCCOC(=O)CCCCCN(CCCCCCCC(=O)OC(CCCCCCCC)CCCCCCCC)CCCNC(=O)CN(CC(=O)NCCCN(CCCCCCCC(=O)OC(CCCCCCCC)CCCCCCCC)CCCCCC(=O)OCCCCCCCCCCC)C(=O)CCN1CCCC1` [Compound 2353, 1-octylnonyl8-[3-[[2-[[2-[3-[[8-(1-octylnonoxy)-8-oxo-octyl]-(6-oxo-6-undecoxy-hexyl)amino]propylamino]-2-oxo-ethyl]-(3-pyrrolidin-1-ylpropanoyl)amino]acetyl]amino]propyl-(6-oxo-6-undecoxy-hexyl)amino]octanoate], the “pKa (TNS)” value [1] was 7.01, the PDI [2, 6] was 0.14 and the “Size (nm)” value [2, 6] was 85.2 nm. The “% EE” value [3, 6] was 97.0%.
For `CCCCCCCCCCC(CC)OC(=O)CCCCCN(CCCCCCCC(=O)OC(CCCCCCCC)CCCCCCCC)CCNC(=O)CCC(=O)NCCN(CCCCCCCC(=O)OC(CCCCCCCC)CCCCCCCC)CCCCCC(=O)OC(CC)CCCCCCCCCC` (stereo not shown) [Compound 2356, 1-octylnonyl 8-[[6-(1-ethylundecoxy)-6-oxo-hexyl]-[2-[[4-[2-[[6-(1-ethylundecoxy)-6-oxo-hexyl]-[8-(1-octylnonoxy)-8-oxo-octyl]amino]ethylamino]-4-oxo-butanoyl]amino]ethyl]amino]octanoate], the “pKa (TNS)” value [1] was 6.01, the PDI [2, 6] was 0.10 and the “Size (nm)” value [2, 6] was 74.2 nm. The “% EE” value [3, 6] was 95.0%.
With `CCCCCCCCCC(C)COC(=O)CCCCCN(CCCCCCCC(=O)OC(CCCCCCCC)CCCCCCCC)CCNC(=O)CCC(=O)NCCN(CCCCCCCC(=O)OC(CCCCCCCC)CCCCCCCC)CCCCCC(=O)OCC(C)CCCCCCCCC` (stereo not shown) [Compound 2355, 1-octylnonyl 8-[[6-(2-methylundecoxy)-6-oxo-hexyl]-[2-[[4-[2-[[6-(2-methylundecoxy)-6-oxo-hexyl]-[8-(1-octylnonoxy)-8-oxo-octyl]amino]ethylamino]-4-oxo-butanoyl]amino]ethyl]amino]octanoate] the “pKa (TNS)” value [1] was 6.2, the PDI [2, 6] was 0.07 and the “Size (nm)” value [2, 6] was 74.7 nm. For the same compound, the “% EE” value [3, 6] was 94.9%.
